Data: patent publication US11613531B2, “Inhibitors of RHO associated coiled-coil containing protein kinase” (Kadmon Corporation, LLC, priority 2017, dated 2023)
Values joined by “and” are separate entries in the source; they are usually repeats but may differ in a detail not shown here. Equal values may be shown once. Read-outs that look alike come from different tables or passages of the source.

Tests used:
[1] = molecular target: Recombinant ROCK2 (amino acids 1-552) (Homo sapiens (Human), UniProt O75116); experiment: Z′-Lyte kinase assay, ROCK2; format: biochemical; conditions: for inhibition at 1 µM: 1 μM compound, read-out: ROCK2 % inh. @ [conc]
Outline: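 Recombinant human ROCK1 (aa 1-535) or ROCK2 (aa 1-552) activity read by Z′-Lyte kinase assay. Percent inhibition at 1 μM compound was normalized to DMSO control; IC50 from 9-point 2-fold serial dilutions by nonlinear regression.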

[2] = test system: ppMlc (T18/S19) levels in A7R5 cells; experiment: A7R5 in-cell ELISA (pMLC); format: cell-based, Rat; conditions: for inhibition at 10 µM / IC50 / inhibition at 1 µM: Rattus norvegicus; for inhibition at 10 µM / inhibition at 1 µM: read-out: pMLC % inh A7R5 @ [conc]; for inhibition at 1 µM: 1 μM compound
Outline: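 A7R5 rat aortic smooth muscle cells seeded 24 h, then treated 90 min with a 9-point 2-fold compound dilution series. Fixed cells probed for ppMlc (T18/S19) by colorimetric in-cell ELISA; cellular IC50 from nonlinear regression curve fit.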

[3] = A7R5, A7R5 cells, 10 μM compound
[4] = A7R5, A7R5 cells, ppMlc (T18/S19)
[5] = 9 points 2-fold serial dilution

Recombinant ROCK2 (amino acids 1-552), sequence (O75116 1-552): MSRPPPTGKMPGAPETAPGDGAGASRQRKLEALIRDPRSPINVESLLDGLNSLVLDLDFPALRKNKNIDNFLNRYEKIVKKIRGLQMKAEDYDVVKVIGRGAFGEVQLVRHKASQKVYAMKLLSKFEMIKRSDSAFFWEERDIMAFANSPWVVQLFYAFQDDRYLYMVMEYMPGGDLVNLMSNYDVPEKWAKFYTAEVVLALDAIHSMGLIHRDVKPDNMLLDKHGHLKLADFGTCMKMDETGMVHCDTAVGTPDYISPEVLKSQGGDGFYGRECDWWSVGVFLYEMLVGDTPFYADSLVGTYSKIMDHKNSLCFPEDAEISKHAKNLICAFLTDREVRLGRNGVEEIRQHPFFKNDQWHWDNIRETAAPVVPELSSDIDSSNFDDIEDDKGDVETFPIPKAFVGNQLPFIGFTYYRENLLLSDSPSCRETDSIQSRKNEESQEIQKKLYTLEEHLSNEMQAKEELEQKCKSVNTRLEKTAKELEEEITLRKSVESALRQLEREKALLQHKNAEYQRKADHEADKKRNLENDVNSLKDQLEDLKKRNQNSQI

inhibition at 1 µM [1]	IC50 [1]	SMILES	inhibition at 10 µM [2, 3]	also measured
	1650 nM	COc1cccc(C2CCN(c3nccc(Nc4ccc(-c5cn[nH]c5)cc4)n3)C2)c1 (stereo not shown) [Example 269, N-(4-(1H-pyrazol-4-yl)phenyl)-2-(3-(3-methoxyphenyl)pyrrolidin-1-yl)pyrimidin-4-amine]		pMLC % inh A7R5 @ [conc] ([2]; A7R5 cells, 10 μM compound): −5.7% and −7.2%
87.4%		CC1CN(c2ncc(F)c(Nc3ccc4[nH]ncc4c3)n2)CCCN1 (stereo not shown) [Example 151, N-(5-fluoro-2-(3-methyl-1,4-diazepan-1-yl)pyrimidin-4-yl)-1H-indazol-5-amine]	55.1%	IC50 [1, 5]: 80 nM
	> 10000 nM	Nc1nc(-c2ccc(Nc3ccnc(N4CCNCC4)n3)cc2)cs1 [Example 355, 4-(4-((2-(piperazin-1-yl)pyrimidin-4-yl)amino)phenyl)thiazol-2-amine]	21.9%	
101%		c1cc(-c2cn[nH]c2)ccc1Nc1nc(N2CCCNCC2)nc2c1CSC2 [Example 263, N-(4-(1H-pyrazol-4-yl)phenyl)-2-(1,4-diazepan-1-yl)-5,7-dihydrothieno[3,4-d]pyrimidin-4-amine]	82%	IC50 [2, 4]: 1390 nM
85.2%		CCC1CNCCCN1c1nccc(Nc2ccc3[nH]ncc3c2)n1 (stereo not shown) [Example 241, N-(2-(2-ethyl-1,4-diazepan-1-yl)pyrimidin-4-yl)-1H-indazol-5-amine]	81%	IC50 [2, 4]: 954 nM
	> 10000 nM	Nc1cc(-c2ccc(Nc3ccnc(N4CCNCC4)n3)cc2)ccn1 [Example 359, N-(4-(2-aminopyridin-4-yl)phenyl)-2-(piperazin-1-yl)pyrimidin-4-amine]	21.8%	
	> 10000 nM	c1cc(Nc2ccc(-c3nnc[nH]3)cc2)nc(N2CCNCC2)n1 [Example 354, N-(4-(4H-1,2,4-triazol-3-yl)phenyl)-2-(piperazin-1-yl)pyrimidin-4-amine]	6.4%	
73.8%		CC1CN(c2ncc(Cl)c(Nc3ccc4[nH]ncc4c3)n2)CCN1 (stereo not shown) [Example 180, N-(5-chloro-2-(3-methylpiperazin-1-yl)pyrimidin-4-yl)-1H-indazol-5-amine]	62.6%	IC50 [2, 4]: 1460 nM
52.3%		COc1cnc(N2CCCNCC2)nc1Nc1ccc(-c2cn[nH]c2)cc1 [Example 267, N-(4-(1H-pyrazol-4-yl)phenyl)-2-(1,4-diazepan-1-yl)-5-methoxypyrimidin-4-amine]	70%	
	> 10000 nM	Nc1nnc(-c2ccc(Nc3ccnc(N4CCNCC4)n3)cc2)s1 [Example 356, 5-(4-((2-(piperazin-1-yl)pyrimidin-4-yl)amino)phenyl)-1,3,4-thiadiazol-2-amine]	6.59%	
	6270 nM	c1cc(Nc2cnc3[nH]ccc3c2)nc(N2CCCNCC2)n1 [Example 370, N-(2-(1,4-diazepan-1-yl)pyrimidin-4-yl)-1H-pyrrolo[2,3-b]pyridin-5-amine]	5.8%	

Further lines, the compound ahead of its results:

SMILES	inhibition at 1 µM [1]	IC50 [1]	inhibition at 10 µM [2, 3]	also measured
Cc1cc(Nc2ccc3[nH]ncc3c2)nc(N2CC(C)NC(C)C2)n1 (stereo not shown) [Example 113, N-(2-(3,5-dimethylpiperazin-1-yl)-6-methylpyrimidin-4-yl)-1H-indazol-5-amine]	58.1%		47.5%	IC50 [2, 4]: 2880 nM
CC1CN(c2ncc(F)c(Nc3ccc4[nH]ncc4c3)n2)CCN1 (stereo not shown) [Example 140, N-(5-fluoro-2-(3-methylpiperazin-1-yl)pyrimidin-4-yl)-1H-indazol-5-amine]	88%		63.5%	IC50 [2, 4]: 734 nM
c1ccc2c(c1)C(C1CCCNC1)CN2c1nccc(Nc2ccc3[nH]ncc3c2)n1 (stereo not shown) [Example 89, N-(2-(3-(piperidin-3-yl)indolin-1-yl)pyrimidin-4-yl)-1H-indazol-5-amine]	12.7%			inhibition at 1 µM ([2]; A7R5, A7R5 cells): 20.1%
c1cc(-c2ccc(Nc3nc(N4C5CCC4CNC5)nc4c3CNC4)cc2)ccn1 [Example 306, 2-(3,8-diazabicyclo[3.2.1]octan-8-yl)-N-(4-(pyridin-4-yl)phenyl)-6,7-dihydro-5H-pyrrolo[3,4-d]pyrimidin-4-amine]		> 1000 nM		IC50 ([2]; A7R5, A7R5 cells): > 10000 nM
Cc1nc(N2CCNCC2C)nc(Nc2ccc3[nH]ncc3c2)c1C (stereo not shown) [Example 27, N-(5,6-dimethyl-2-(2-methylpiperazin-1-yl)pyrimidin-4-yl)-1H-indazol-5-amine]	71.3%			inhibition at 1 µM ([2]; A7R5, A7R5 cells): 16.8%
CCC1CN(c2nc(C)cc(Nc3ccc4[nH]ncc4c3)n2)CCN1 (stereo not shown) [Example 114, N-(2-(3-ethylpiperazin-1-yl)-6-methylpyrimidin-4-yl)-1H-indazol-5-amine]	82%		48.7%	
c1cc(Nc2ccc3[nH]ncc3c2)nc(N2CCNC3(CC3)C2)n1 [Example 66, N-(2-(4,7-diazaspiro[2.5]octan-7-yl)pyrimidin-4-yl)-1H-indazol-5-amine]	86.3%			IC50 [1, 5]: 380 nM; inhibition at 1 µM ([2]; A7R5, A7R5 cells): 17.5%
OC1CC2CCC(C1)N2c1nccc(Nc2ccc(-c3cn[nH]c3)cc2)n1 (stereo not shown) [Example 259, 8-(4-((4-(1H-pyrazol-4-yl)phenyl)amino)pyrimidin-2-yl)-8-azabicyclo[3.2.1]octan-3-ol]		> 10000 nM		inhibition at 10 µM ([2]; A7R5 cells, 10 μM compound): 6.48%
Cc1cnc(N2C3CCC2CNC3)nc1Nc1ccc2[nH]ncc2c1 [Example 107, N-(2-(3,8-diazabicyclo[3.2.1]octan-8-yl)-5-methylpyrimidin-4-yl)-1H-indazol-5-amine]	98.3%			inhibition at 1 µM ([2]; A7R5, A7R5 cells): 26%
Cc1nc(N2CCNCC(C)C2)nc(Nc2ccc3[nH]ncc3c2)c1C (stereo not shown) [Example 28, N-(5,6-dimethyl-2-(6-methyl-1,4-diazepan-1-yl)pyrimidin-4-yl)-1H-indazol-5-amine]	45%			inhibition at 1 µM ([2]; A7R5, A7R5 cells): 11.8%
Cc1nc(N2CCNCC2)nc(Nc2ccc3[nH]ncc3c2)c1C [Example 197, N-(5,6-dimethyl-2-(piperazin-1-yl)pyrimidin-4-yl)-1H-indazol-5-amine]			53.8%	IC50 [1, 5]: 437 nM; IC50 [2, 4]: 581 nM
Cc1cc(Nc2ccc3[nH]ncc3c2)nc(N2CCNC(C(C)C)C2)n1 (stereo not shown) [Example 115, N-(2-(3-isopropylpiperazin-1-yl)-6-methylpyrimidin-4-yl)-1H-indazol-5-amine]	64.2%		48.2%	
c1cc(Nc2ccc(-c3cn[nH]c3)cc2)nc(N2CCCNCC2)n1 [Example 44, N-(4-(1H-pyrazol-4-yl)phenyl)-2-(1,4-diazepan-1-yl)pyrimidin-4-amine]	72.7%	220 nM		inhibition at 1 µM ([2]; A7R5, A7R5 cells): 13.2%
CCC1CCN(c2nc(C)c(C)c(Nc3ccc4[nH]ncc4c3)n2)CCN1 (stereo not shown) [Example 23, N-(2-(5-ethyl-1,4-diazepan-1-yl)-5,6-dimethylpyrimidin-4-yl)-1H-indazol-5-amine]	29.5%		46.4%	
c1cc(Nc2ccc(-c3cn[nH]c3)cc2)nc(N2CCNCC2)n1 [Example 38, N-(4-(1H-pyrazol-4-yl)phenyl)-2-(piperazin-1-yl)pyrimidin-4-amine]	63.1%	451 nM		inhibition at 1 µM ([2]; A7R5, A7R5 cells): 9.2%
COc1cnc(N2CCNCC(C)C2)nc1Nc1ccc2[nH]ncc2c1 (stereo not shown) [Example 56, N-(5-methoxy-2-(6-methyl-1,4-diazepan-1-yl)pyrimidin-4-yl)-1H-indazol-5-amine]	87.1%			inhibition at 1 µM ([2]; A7R5, A7R5 cells): 29%
